Results taken from US10383861B2, “3-(1H-pyrrolo[2,3-C]pyridin-2-yl)-1H-pyrazolo[3,4-C]pyridines and therapeutic uses thereof” (Samumed, LLC, priority 2015, dated 2019).

Tests used:
Type in all cases: cell-based
Wnt activity = Wnt activity screening assay, Sp5-Luc reporter gene in SW480 cells; conditions: Homo sapiens; for inhibition at 10 µM: SW480, read-out: percent inhibition at 10 μM; for EC50: Sp5-Luc reporter, SW480 cells, overnight incubation
Text: The screening assay for Wnt activity is described as follows. Reporter cell lines can be generated by stably transducing cancer cell lines (e.g., colon cancer) or primary cells (e.g., IEC-6 intestinal cells) with a lentiviral construct that includes a Wnt-responsive promoter driving expression of the firefly luciferase gene.
SW480 colon carcinoma cells were transduced with a lentiviral vector expressing luciferase with a human Sp5 promoter consisting of a sequence of eight TCF/LEF binding sites. SW480 cells stably expressing the Sp5-Luc reporter gene and a hygromycin resistance gene were selected by treatment with 150 μg/mL of hygromycin for 7 days. These stably transduced SW480 cells were expanded in cell culture and used for all further screening activities. […] For Sp5-Luc reporter gene assays, the cells were plated at 4,000 cells/well in 384-well plates with medium containing 1% fetal bovine serum and incubated overnight at 37° C. and 5% CO2. Following incubation, 20 μl of BrightGlo luminescence reagent (Promega) was added to each well of the 384-well assay plates. The plates were placed on an orbital shaker for 2 min and then luminescence was quantified using the Envision (Perkin Elmer) plate reader. Readings were normalized to DMSO only treated cells, and normalized activities were utilized for EC50 calculations using the dose-response log (inhibitor) vs. response -variable slope (four parameters) nonlinear regression feature available in GraphPad Prism 5.0 (or Dotmatics).

[1] = test system: primary human fibroblasts derived from IPF patients (LL29 cells); test: Inhibition of the fibrotic process: αSMA staining in TGF-β1 treated LL29 fibroblasts; conditions: Fibroblast; for EC50: 96 h, LL29 cells, TGF-β1 20 ng/mL, 4 days, % αSMA positive cells; for inhibition at 10 µM: read-out: percent inhibition at 10 μM
Protocol: Representative compounds were screened using primary human fibroblasts (derived from IPF patients) treated with TGF-β1 to determine their ability to inhibit the fibrotic process.
LL29 cells are plated at 1,500 cells/well in 80 μL/well F12 medium supplemented with 1% Fetal Bovine Serum. […] Wells treated with TGF-β1 and containing DMSO were used as controls. […] Following incubation for 4 days, SYTOX green nucleic acid stain (Life Technologies [Thermo Fisher Scientific]) was added to the wells at a final concentration of 1 μM and incubated at room temperature for 30 min.

IL-6 = IL-6 inhibition in LPS-stimulated THP-1 cells (HTRF); conditions: Homo sapiens; for inhibition at 10 µM: THP-1, read-out: percent inhibition at 10 μM; for EC50: THP-1 cells, LPS 500 ng/mL, 22 hours, IL6 HTRF
Protocol: THP-1 cells were cultured in basal media with 1% FBS for 24 hours before the start of the assay. […] THP-1 cells were plated at 5000 cells/well in the 384-well plates and incubated at 37° C. for 2 h. 500 ng/mL of LPS was added after 2 hours and cells were incubated for another 22 hours at 37° C. Plates were spun in a centrifuge for 1 minute at […] and a mixture of anti-IL6 XL665, and anti-IL6 Cryptate diluted in reconstitution buffer (Cisbio Inc.) was added to each well. Following incubation for 3 hrs at room temperature, Homogeneous Time-Resolved Fluorescence (HTRF) was measured using the Envision (Perkin Elmer) at 665 nm and […]. The ratio of fluorescence at 665 nm to 620 nm was used as a readout for IL6 quantification. All samples were processed in duplicate. Readings were normalized to DMSO treated cells and normalized activities were utilized for EC50 calculations using the dose-response log (inhibitor) vs. response -variable slope (four parameters) nonlinear regression feature available in GraphPad Prism 5.0 (or Dotmatics).

SW480 colon cancer cells = test: Cell viability assay (CellTiter-Blue) in SW480 colon cancer cells; conditions: Homo sapiens; for EC50: 96 h, SW480 cell viability, four days, CellTiter-Blue; for inhibition at 10 µM: SW480, read-out: percent inhibition at 10 μM
Protocol: Representative compounds were screened using the following assay procedure to assess the effect on cell viability as described below.
Approximately 2×10^3 SW480 colon cancer cells were seeded into each well and allowed to incubate in the presence or absence of compound for four days at 37° C./5% CO2. Eight replicates of DMSO-treated cells served as controls and cells treated with compound were performed in duplicate.
After incubation, 20 μL of CellTiter-Blue (Promega) was added to each well allowed to incubate for approximately 3 hours. This reagent was a buffered solution which contains resazurin, metabolically active cells were able to reduce rezarurin (blue) into resorufin (pink) which was highly fluorescent. This measured fluorescence was used as a readout for cell viability.

| SMILES | EC50 (Wnt activity) | EC50 (IL-6) | EC50 (SW480 colon cancer cells) | inhibition at 10 µM (Wnt activity) | EC50 [1] | inhibition at 10 µM [1] | inhibition at 10 µM (IL-6) | inhibition at 10 µM (SW480 colon cancer cells) |
| --- | --- | --- | --- | --- | --- | --- | --- | --- |
| CCC(=O)Nc1cncc(-c2cc3c(-c4cc5c(-c6ccc(F)cc6)cncc5[nH]4)n[nH]c3cn2)c1 [Compound 29, N-(5-(3-(4-(4-Fluorophenyl)-1H-pyrrolo[2,3-c]pyridin-2-yl)-1H-pyrazolo[3,4-c]pyridin-5-yl)pyridin-3-yl)propionamide] | > 10 µM | > 10 µM | > 10 µM | 37.8% | > 10 µM | 49.1% | 43% | 29.6% |
| CN(C)Cc1cncc(-c2cc3c(-c4cc5ccncc5[nH]4)n[nH]c3cn2)c1 [Compound 265, 1-(5-(3-(1H-Pyrrolo[2,3-c]pyridin-2-yl)-1H-pyrazolo[3,4-c]pyridin-5-yl)pyridin-3-yl)-N,N-dimethylmethanamine] | 2.54 µM | 3.11 µM | 2.65 µM |  | 1.48 µM |  |  |  |
| CC(C)(C)CC(=O)Nc1cncc(-c2cc3c(-c4cc5c(-c6ccc(F)cc6)cncc5[nH]4)n[nH]c3cn2)c1 [Compound 44, N-(5-(3-(4-(4-Fluorophenyl)-1H-pyrrolo[2,3-c]pyridin-2-yl)-1H-pyrazolo[3,4-c]pyridin-5-yl)pyridin-3-yl)-3,3-dimethylbutanamide] | 0.679 µM | > 10 µM | 3.51 µM |  | 0.434 µM |  | 16.2% |  |
| c1cc2cc(-c3n[nH]c4cnc(-c5cncc(CNCC6CCCC6)c5)cc34)[nH]c2cn1 [Compound 277, 1-(5-(3-(1H-Pyrrolo[2,3-c]pyridin-2-yl)-1H-pyrazolo[3,4-c]pyridin-5-yl)pyridin-3-yl)-N-(cyclopentylmethyl)methanamine] | 3.48 µM | 3.58 µM | 3.96 µM |  | 1.81 µM |  |  |  |
| O=C(Nc1cncc(-c2cc3c(-c4cc5ccncc5[nH]4)n[nH]c3cn2)c1)C1CC1 [Compound 272, N-(5-(3-(1H-Pyrrolo[2,3-c]pyridin-2-yl)-1H-pyrazolo[3,4-c]pyridin-5-yl)pyridin-3-yl)cyclopropanecarboxamide] | 0.977 µM | 3.14 µM | > 10 µM |  | 0.467 µM |  |  | 29.9% |
| Cc1ccncc1-c1cc2c(-c3cc4c(-c5ccoc5)cncc4[nH]3)n[nH]c2cn1 [Compound 313, 3-(4-(Furan-3-yl)-1H-pyrrolo[2,3-c]pyridin-2-yl)-5-(4-methylpyridin-3-yl)-1H-pyrazolo[3,4-c]pyridine] | 1.59 µM | 4.27 µM | 1.74 µM |  | 0.599 µM |  |  |  |
| CC(C)CC(=O)Nc1cncc(-c2cc3c(-c4cc5c(-c6cccc(F)c6)cncc5[nH]4)n[nH]c3cn2)c1 [Compound 2, N-(5-(3-(4-(3-Fluorophenyl)-1 H-pyrrolo[2,3-c]pyridin-2-yl)-1 H-pyrazolo[3,4-c]pyridin-5-yl)pyridin-3-yl)-3-methylbutanamide] | > 10 µM | > 10 µM | > 10 µM | 5.6% | 2.23 µM |  | 37.2% | 25.4% |
| Cc1ccncc1-c1cc2c(-c3cc4c(-c5ccc(F)cc5)cncc4[nH]3)n[nH]c2cn1 [Compound 33, 3-(4-(4-Fluorophenyl)-1H-pyrrolo[2,3-c]pyridin-2-yl)-5-(4-methylpyridin-3-yl)-1H-pyrazolo[3,4-c]pyridine] | 1.84 µM | 4.58 µM | 1.09 µM |  | 0.333 µM |  |  |  |
| Fc1ccccc1-c1cncc2[nH]c(-c3n[nH]c4cnc(-c5ccccn5)cc34)cc12 [Compound 84, 3-(4-(2-Fluorophenyl)-1H-pyrrolo[2,3-c]pyridin-2-yl)-5-(pyridin-2-yl)-1H-pyrazolo[3,4-c]pyridine] | 1.06 µM | 3.03 µM | 1.29 µM |  | 1.39 µM |  |  |  |
| CCCCC(=O)Nc1cncc(-c2cc3c(-c4cc5c(-c6ccncc6)cncc5[nH]4)n[nH]c3cn2)c1 [Compound 131, N-(5-(3-(4-(Pyridin-4-yl)-1H-pyrrolo[2,3-c]pyridin-2-yl)-1H-pyrazolo[3,4-c]pyridin-5-yl)pyridin-3-yl)pentanamide] | > 10 µM | > 10 µM | > 10 µM | 13.1% | > 10 µM | 8.3% | 20.6% | 17.8% |

Second part, led by results:

| EC50 (Wnt activity) | EC50 (IL-6) | EC50 (SW480 colon cancer cells) | SMILES | inhibition at 10 µM (Wnt activity) | EC50 [1] | inhibition at 10 µM [1] | inhibition at 10 µM (IL-6) | inhibition at 10 µM (SW480 colon cancer cells) |
| --- | --- | --- | --- | --- | --- | --- | --- | --- |
| 3.65 µM | 1 µM | > 10 µM | CC(C)C(=O)Nc1cncc(-c2cc3c(-c4cc5c(-c6ccoc6)cncc5[nH]4)n[nH]c3cn2)c1 [Compound 317, N-(5-(3-(4-(Furan-3-yl)-1H-pyrrolo[2,3-c]pyridin-2-yl)-1H-pyrazolo[3,4-c]pyridin-5-yl)pyridin-3-yl)isobutyramide] |  | 4.88 µM |  |  | 0% |
| > 10 µM | > 10 µM | > 10 µM | CC(C)(C)CC(=O)Nc1cncc(-c2cc3c(-c4cc5c(-c6cc(F)cc(CNS(C)(=O)=O)c6)cncc5[nH]4)n[nH]c3cn2)c1 [Compound 492, N-(5-(3-(4-(3-Fluoro-5-(methylsulfonamidomethyl)phenyl)-1H-pyrrolo[2,3-c]pyridin-2-yl)-1H-pyrazolo[3,4-c]pyridin-5-yl)pyridin-3-yl)-3,3-dimethylbutanamide] | 14.6% | > 10 µM | 0% | 29% | 16.3% |
| > 10 µM | > 10 µM | > 10 µM | CN(C)CCOc1cncc(-c2cc3c(-c4cc5c(-c6cccs6)cncc5[nH]4)n[nH]c3cn2)c1 [Compound 707, N,N-Dimethyl-2-((5-(3-(4-(thiophen-2-yl)-1H-pyrrolo[2,3-c]pyridin-2-yl)-1H-pyrazolo[3,4-c]pyridin-5-yl)pyridin-3-yl)oxy)ethan-1-amine] | 5% | 5.1 µM |  | 41.3% | 0% |
| > 10 µM | > 10 µM | > 10 µM | Fc1ccccc1-c1cncc2[nH]c(-c3n[nH]c4cnc(-c5cn[nH]c5)cc34)cc12 [Compound 539, 3-(4-(2-Fluorophenyl)-1H-pyrrolo[2,3-c]pyridin-2-yl)-5-(1H-pyrazol-4-yl)-1H-pyrazolo[3,4-c]pyridine] | 8.6% | 2.43 µM |  | 0% | 3.6% |
| 5.24 µM | 1.32 µM | 4.1 µM | FC1(F)CCN(Cc2cncc(-c3cc4c(-c5cc6c(-c7cccs7)cncc6[nH]5)n[nH]c4cn3)c2)C1 [Compound 362, 5-(5-((3,3-Difluoropyrrolidin-1-yl)methyl)pyridin-3-yl)-3-(4-(thiophen-2-yl)-1H-pyrrolo[2,3-c]pyridin-2-yl)-1H-pyrazolo[3,4-c]pyridine] |  | 1.16 µM |  |  |  |
| > 10 µM | > 10 µM | > 10 µM | CS(=O)(=O)NCc1cc(F)cc(-c2cncc3[nH]c(-c4n[nH]c5cnc(-c6cncc(NC(=O)C7CCCCC7)c6)cc45)cc23)c1 [Compound 499, N-(5-(3-(4-(3-Fluoro-5-(methylsulfonamidomethyl)phenyl)-1H-pyrrolo[2,3-c]pyridin-2-yl)-1H-pyrazolo[3,4-c]pyridin-5-yl)pyridin-3-yl)cyclohexanecarboxamide] | 11.3% | > 10 µM | 0% | 36.6% | 15.5% |
